Data set [1] in a line: Solubility of compound. The format is physicochemical.
The target of the next data set is D(3) dopamine receptor (Homo sapiens, UniProt P35462). Put plainly: Displacement of [3H]-spiperone from human dopamine D3 receptor expressed in CHO-K1 cell membranes after 90 mins by liquid scintillation counter method. (Loss of bound radioactivity is the signal in a displacement assay; it reports binding, not function.)
The target in a further data set is D(2) dopamine receptor (Homo sapiens, UniProt P14416). Put plainly: Displacement of [3H]-spiperone from human dopamine D2 receptor expressed in CHO-K1 cell membranes after 120 mins by liquid scintillation counter method.
D(2) dopamine receptor, sequence (P14416 whole entry): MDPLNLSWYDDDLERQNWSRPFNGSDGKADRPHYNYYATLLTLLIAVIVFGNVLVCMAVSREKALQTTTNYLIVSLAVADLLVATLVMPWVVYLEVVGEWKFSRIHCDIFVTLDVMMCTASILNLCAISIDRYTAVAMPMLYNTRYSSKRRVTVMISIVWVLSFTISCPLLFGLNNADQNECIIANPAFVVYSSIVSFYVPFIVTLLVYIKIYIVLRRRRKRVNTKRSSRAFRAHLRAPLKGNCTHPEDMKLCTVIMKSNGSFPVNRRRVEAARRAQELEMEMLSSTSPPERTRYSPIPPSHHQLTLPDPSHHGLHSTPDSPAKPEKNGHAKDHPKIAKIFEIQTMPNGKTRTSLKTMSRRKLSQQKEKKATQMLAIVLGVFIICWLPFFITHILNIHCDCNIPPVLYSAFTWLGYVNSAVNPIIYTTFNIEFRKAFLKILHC
For another data set, the species on record is Homo sapiens. Put plainly: Selectivity ratio of IC50 for human ERG to Ki for human dopamine D3 receptor.
Data set [2] deals with Voltage-gated inwardly rectifying potassium channel KCNH2 (Homo sapiens, UniProt Q12809). Put plainly: Inhibition of human ERG tail current expressed in HEK293 cells after 5 mins by patch clamp assay. (In general: In patch-clamp work, channel activity is measured electrically.)
Voltage-gated inwardly rectifying potassium channel KCNH2, sequence (Q12809 whole entry): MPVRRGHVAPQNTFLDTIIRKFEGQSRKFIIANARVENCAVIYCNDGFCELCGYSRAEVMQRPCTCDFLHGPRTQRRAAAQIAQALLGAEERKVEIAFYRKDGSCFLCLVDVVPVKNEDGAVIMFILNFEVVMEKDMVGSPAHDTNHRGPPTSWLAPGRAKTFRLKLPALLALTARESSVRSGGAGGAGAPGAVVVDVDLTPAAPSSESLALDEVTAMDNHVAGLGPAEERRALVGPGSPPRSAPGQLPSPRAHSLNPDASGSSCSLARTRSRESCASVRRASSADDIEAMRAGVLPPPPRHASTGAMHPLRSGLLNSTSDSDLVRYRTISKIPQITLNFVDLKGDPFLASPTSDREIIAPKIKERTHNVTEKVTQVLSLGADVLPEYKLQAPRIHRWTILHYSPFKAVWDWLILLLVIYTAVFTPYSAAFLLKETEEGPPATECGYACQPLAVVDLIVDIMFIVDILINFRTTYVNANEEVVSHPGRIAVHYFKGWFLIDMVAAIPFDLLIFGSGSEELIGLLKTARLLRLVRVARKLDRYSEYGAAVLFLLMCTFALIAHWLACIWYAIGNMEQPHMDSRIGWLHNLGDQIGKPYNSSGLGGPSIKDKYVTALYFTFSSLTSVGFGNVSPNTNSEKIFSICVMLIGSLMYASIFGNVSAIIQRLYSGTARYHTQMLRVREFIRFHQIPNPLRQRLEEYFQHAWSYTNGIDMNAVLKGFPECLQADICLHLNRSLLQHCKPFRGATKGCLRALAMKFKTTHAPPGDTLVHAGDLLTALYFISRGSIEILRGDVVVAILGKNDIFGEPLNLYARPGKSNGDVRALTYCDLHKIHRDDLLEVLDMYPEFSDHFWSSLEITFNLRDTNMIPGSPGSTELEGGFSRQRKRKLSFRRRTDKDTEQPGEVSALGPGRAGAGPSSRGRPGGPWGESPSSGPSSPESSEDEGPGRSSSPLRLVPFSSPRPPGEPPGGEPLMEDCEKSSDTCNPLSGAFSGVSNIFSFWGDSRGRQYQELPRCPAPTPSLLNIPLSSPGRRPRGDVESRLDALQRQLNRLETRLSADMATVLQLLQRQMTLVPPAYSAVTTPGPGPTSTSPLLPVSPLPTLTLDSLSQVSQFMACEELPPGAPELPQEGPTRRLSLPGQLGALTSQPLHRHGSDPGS
Data set [3] concerns the target D(1A) dopamine receptor (Homo sapiens) (UniProt P21728). In words: Binding affinity to dopamine D1 receptor (unknown origin).

The values that follow come from ChEMBL document CHEMBL3774368, “1,2,4-Triazolyl octahydropyrrolo[2,3-b]pyrroles: A new series of potent and selective dopamine D3 receptor antagonists” (Bioorg Med Chem, 2016).

The source made the active and inactive calls. The calls are words filed in the database; no cut-off is given here.

D(3) dopamine receptor, sequence (P35462 whole entry): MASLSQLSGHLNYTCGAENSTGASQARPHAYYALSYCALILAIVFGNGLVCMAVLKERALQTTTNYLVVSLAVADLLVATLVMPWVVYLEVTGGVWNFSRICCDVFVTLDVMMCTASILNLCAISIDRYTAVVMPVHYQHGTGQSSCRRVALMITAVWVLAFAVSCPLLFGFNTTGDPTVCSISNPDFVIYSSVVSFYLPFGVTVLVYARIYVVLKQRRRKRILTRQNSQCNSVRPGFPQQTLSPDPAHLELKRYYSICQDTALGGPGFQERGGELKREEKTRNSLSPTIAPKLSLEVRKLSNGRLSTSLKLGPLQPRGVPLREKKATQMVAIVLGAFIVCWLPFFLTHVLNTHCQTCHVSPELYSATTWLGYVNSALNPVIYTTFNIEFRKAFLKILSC
D(1A) dopamine receptor (Homo sapiens), sequence (P21728 whole entry): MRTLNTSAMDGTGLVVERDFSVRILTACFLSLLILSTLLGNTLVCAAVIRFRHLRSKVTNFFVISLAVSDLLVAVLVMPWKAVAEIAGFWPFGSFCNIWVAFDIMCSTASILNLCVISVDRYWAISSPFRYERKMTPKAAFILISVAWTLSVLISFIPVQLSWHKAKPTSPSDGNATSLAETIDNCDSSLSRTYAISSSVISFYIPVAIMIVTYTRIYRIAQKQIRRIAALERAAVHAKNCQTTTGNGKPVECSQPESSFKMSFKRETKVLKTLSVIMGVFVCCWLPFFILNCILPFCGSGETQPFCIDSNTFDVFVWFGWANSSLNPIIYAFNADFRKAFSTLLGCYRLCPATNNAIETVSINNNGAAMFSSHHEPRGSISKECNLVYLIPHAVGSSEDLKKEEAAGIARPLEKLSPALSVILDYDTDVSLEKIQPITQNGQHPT

As to `Cc1ncoc1-c1nnc(SCCCN2CC3CCN(c4ccc(C(F)(F)F)cc4)C3C2)n1C.Cl` (stereo unspecified), in data set [1], the solubility (in general, the dissolved amount per volume that the medium holds) worked out at 300 µg/mL.

Compound `Cc1ncoc1-c1nnc(SCCCN2CC3CCN(c4ccccc4)C3C2)n1C.Cl` (stereo unspecified) came in with a solubility in data set [1] of over 2000 µg/mL.

For `Cc1ncoc1-c1nnc(SCCCN2CC3CCN(c4cccc(F)c4)C3C2)n1C` (racemic), the Ki – broadly, the equilibrium dissociation constant of an inhibitor or competing ligand from its target – on D(3) dopamine receptor was 3.16 nM; at D(2) dopamine receptor, 158 nM. In addition, in the data set filed under Homo sapiens, the Selectivity ratio stood at 100. Also, the IC50 (in general, the midpoint of a concentration-inhibition curve) in data set [2] is 251 nM.

As for `Cc1ncoc1-c1nnc(SCCCN2CC3CCN(c4ccc(C(F)(F)F)cc4F)C3C2)n1C` (racemic), the Ki on D(3) dopamine receptor is 2 nM; on D(2) dopamine receptor, 100 nM. Moreover, the IC50 in data set [2] is 15800 nM.

Take `Cc1ncoc1-c1nnc(SCCCN2CC3CCN(c4ccc(Cl)cc4Cl)C3C2)n1C` (racemic): the Ki is 5.01 nM at D(3) dopamine receptor and 501 nM at D(2) dopamine receptor. The compound further showed an IC50 in data set [2] of 1260 nM.

Take `Cc1ncoc1-c1nnc(SCCCN2CC3CCN(c4cc(Cl)cc(Cl)c4)C3C2)n1C` (racemic): the Ki at D(3) dopamine receptor is 0.398 nM; on D(2) dopamine receptor it was 10 nM. In addition, the IC50 in data set [2] was under 100 nM.

As to `Cn1c(SCCCN2CC3CCN(c4ccc(C(F)(F)F)cc4)C3C2)nnc1-c1cc[nH]c(=O)c1` (racemic), the Selectivity ratio in the data set listed under Homo sapiens was over 100.

Regarding `Cc1ncoc1-c1nnc(SCCCN2CC3CCN(c4ccccc4)C3C2)n1C` (stereo in doubt; 6b), the result in data set [3] was inactive.

`Cc1ncoc1-c1nnc(SCCCN2CC3CCN(c4ccc(C(F)(F)F)cc4F)C3C2)n1C` (stereo in doubt; 8a): the Ki on D(3) dopamine receptor was 5.01 nM; on D(2) dopamine receptor, 1580 nM. This compound had an IC50 in data set [2] of 200 nM.

With `Cc1ncoc1-c1nnc(SCCCN2CC3CCN(c4ccc(C(F)(F)F)cc4F)C3C2)n1C` (stereo in doubt; 8b), the result in data set [3] was inactive.
